In article PMC3124361 (Journal of medicinal chemistry, 2011):
Converted amounts (≈) assume the structure as drawn.

Columns and labels:
[1] = target: T1, PfDHODH (Plasmodium falciparum, UniProt Q08210); test: PfDHODH DCIP dye-based enzyme assay; assay type: biochemical; conditions: for IC50: IC50 PfDHODH
T1 sequence (Q08210 158-569 limits assumed): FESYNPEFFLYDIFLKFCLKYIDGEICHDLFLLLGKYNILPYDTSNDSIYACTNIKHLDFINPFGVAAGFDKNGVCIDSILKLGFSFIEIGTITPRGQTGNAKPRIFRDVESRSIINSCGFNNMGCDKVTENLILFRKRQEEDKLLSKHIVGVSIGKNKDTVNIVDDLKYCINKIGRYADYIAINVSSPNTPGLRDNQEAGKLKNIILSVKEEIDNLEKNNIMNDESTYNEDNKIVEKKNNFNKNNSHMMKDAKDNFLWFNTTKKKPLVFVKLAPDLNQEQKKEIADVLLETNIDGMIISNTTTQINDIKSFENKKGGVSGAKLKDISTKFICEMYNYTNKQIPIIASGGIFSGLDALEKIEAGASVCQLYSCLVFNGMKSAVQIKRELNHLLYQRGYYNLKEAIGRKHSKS

[2] = In vitro metabolism in human liver microsomes; assay type: in vitro ADME; conditions: predicted hepatic extraction ratio
[3] = Non-equilibrium solubility by nephelometry, pH 6.5; assay type: physicochemical

Molecule CCCCCCCCc1ccc(Nc2cc(C)nc3ncnn23)cc1 [Compound 13, N-(4-Octylphenyl)-5-methyl-[1,2,4]triazolo[1,5-a]pyrimidin-7-amine] has an IC50 [1] greater than 50 µM.
Work on Cc1cc(Nc2ccc(N3CCOCC3)cc2)n2ncnc2n1 [Compound 25, N-(4-Morpholinophenyl)-5-methyl-[1,2,4]triazolo[1,5-a]pyrimidin-7-amine] yielded an IC50 [1] greater than 100 µM.
With Cc1cc(Nc2ccc(NC(C)(C)C)cc2)n2ncnc2n1 [Compound 26, N^1-tert-Butyl-N^4(5-methyl-[1,2,4]triazolo[1,5-a]pyrimidin-7-yl)benzene-1,4-diamine] the IC50 [1] was greater than 50 µM.
In the case of Cc1cc(Nc2ccc(Cl)c(F)c2)n2ncnc2n1 [Compound 30, N-(4-Chloro-3-fluorophenyl)-5-methyl-[1,2,4]triazolo[1,5-a]pyrimidin-7-amine], the “fold decrease in PfDHODH IC50 over the 4-Cl alone” value ([1]; comparator 4-Cl-Ph (DSM89)) is reported as 3 fold.
For Cc1cc(Nc2ccc3c(c2)OCO3)n2ncnc2n1 [Compound 35, N-(Benzo[d][1,3]dioxol-5yl)-5-methyl-[1,2,4]triazolo[1,5-a]pyrimidin-7-amine], the “Eh Human” value [2] was 0.37/ND, the “aqueous solubility at pH 6.5 (in words)” value [3] was “highly soluble” and the solubility ([3]; phosphate buffer) was 186 to 372 µM (≈ 50.1 to 100 µg/mL).
For Cc1cc(NC2CC2)n2ncnc2n1 [Compound 38, N-Cyclopropyl-5-methyl-[1,2,4]triazolo[1,5-a]pyrimidin-7-amine], the IC50 [1] was greater than 100 µM.
Molecule Cc1cc(NC2CCC2)n2ncnc2n1 [Compound 39, N-Cyclobutyl-5-methyl-[1,2,4]triazolo[1,5-a]pyrimidin-7-amine] has an IC50 [1] greater than 100 µM.
Cc1cc(NC2CCCC2)n2ncnc2n1 [Compound 40, N-Cyclopentyl-5-methyl-[1,2,4]triazolo[1,5-a]pyrimidin-7-amine] showed an IC50 [1] greater than 100 µM.
Molecule Cc1cc(NC2CCCCC2)n2ncnc2n1 [Compound 41, N-Cyclohexyl-5-methyl-[1,2,4]triazolo[1,5-a]pyrimidin-7-amine] has an IC50 [1] greater than 100 µM.
Cc1cc(NC2CCCCCC2)n2ncnc2n1 [Compound 42, N-Cycloheptyl-5-methyl-[1,2,4]triazolo[1,5-a]pyrimidin-7-amine] showed an IC50 [1] greater than 100 µM.
Cc1cc(NC2CCCCCCC2)n2ncnc2n1 [Compound 43, N-Cyclooctyl-5-methyl-[1,2,4]triazolo[1,5-a]pyrimidin-7-amine] gave an IC50 [1] greater than 100 µM.
With Cc1cc(NOc2ccccc2)n2ncnc2n1 [Compound 52, N-(5-Methyl-[1,2,4]triazolo[1,5-a]pyrimidin-7-yl)-O-phenylhydroxylamine] the “activity against PfDHODH (in words)” value [1] was “inactive” and the IC50 [1] was greater than 100 µM.
With Cc1cc(NCc2ccccc2)n2ncnc2n1 [Compound 53] the IC50 [1] was greater than 100 µM.
For Cc1cc(NCc2ccc(F)cc2)n2ncnc2n1 [Compound 54], the “activity against PfDHODH (in words)” value [1] was “inactive” and the IC50 [1] was greater than 100 µM.
In the case of Cc1cc(NCc2ccc(C(F)(F)F)cc2)n2ncnc2n1 [Compound 55], the “activity against PfDHODH (in words)” value [1] is reported as “inactive” and the IC50 [1] is reported as greater than 100 µM.
With Cc1cc(NCCc2ccccc2)n2ncnc2n1 [Compound 56, 5-Methyl-N-phenethyl-[1,2,4]triazolo[1,5-a]pyrimidin-7-amine] the “activity against PfDHODH (in words)” value [1] was “mid-micromolar range activity”.
With Cc1cc(NCCCc2ccccc2)n2ncnc2n1 [Compound 57] the “activity against PfDHODH (in words)” value [1] was “mid-micromolar range activity”.
With CCc1cc(Nc2ccc(C(F)(F)F)cc2)n2ncnc2n1 [Compound 59, 5-Ethyl-N-(4-trifluoromethyl)phenyl-[1,2,4]triazolo[1,5-a]pyrimidin-7-amine] the “fold reduction in PfDHODH inhibitory activity versus 2” value ([1]; comparator 2) was 2 fold.
In the case of FC(F)(F)c1ccc(Nc2cc(C(F)(F)F)nc3ncnn23)cc1 [Compound 60], the “fold reduction in PfDHODH inhibitory activity versus 2” value ([1]; comparator 2) is reported as 4 fold.
With FC(F)(F)c1ccc(Nc2cc(Cl)nc3ncnn23)cc1 [Compound 61] the “fold better activity (lower IC50) against PfDHODH than 2” value ([1]; comparator 2) was 2 fold.
In the case of CCCc1c(C)nc2ncnn2c1Nc1ccc(C)cc1 [Compound 64], the “activity against PfDHODH (in words)” value [1] is reported as “complete loss in activity” and the IC50 [1] is reported as greater than 100 µM.
